≈ marks a conversion by molar mass, not a printed value. Calls of active or inactive are those of the source. No cut-off for these calls is given here.
Key:
Format in all cases: functional
Staphylococcus aureus [1] = experiment: Antimicrobial activity against Staphylococcus aureus assessed as zone of inhibition at 50 ug/well after 24 hrs by agar well diffusion method; settings: for zone of inhibition at 50 µg/disc: read-out: DIZ
Staphylococcus aureus [2] = experiment: Antimicrobial activity against Staphylococcus aureus assessed as zone of inhibition at 75 ug/well after 24 hrs by agar well diffusion method; settings: for zone of inhibition at 75 µg/disc: read-out: DIZ
Staphylococcus aureus [3] = experiment: Antimicrobial activity against Staphylococcus aureus assessed as zone of inhibition at 100 ug/well after 24 hrs by agar well diffusion method; settings: for zone of inhibition at 100 µg/disc: read-out: DIZ
Bacillus subtilis [4] = experiment: Antimicrobial activity against Bacillus subtilis assessed as zone of inhibition at 50 ug/well after 24 hrs by agar well diffusion method; settings: for zone of inhibition at 50 µg/disc: read-out: DIZ
Bacillus subtilis [5] = experiment: Antimicrobial activity against Bacillus subtilis assessed as zone of inhibition at 75 ug/well after 24 hrs by agar well diffusion method; settings: for zone of inhibition at 75 µg/disc: read-out: DIZ
Bacillus subtilis [6] = experiment: Antimicrobial activity against Bacillus subtilis assessed as zone of inhibition at 100 ug/well after 24 hrs by agar well diffusion method; settings: for zone of inhibition at 100 µg/disc: read-out: DIZ
Pseudomonas aeruginosa [7] = experiment: Antimicrobial activity against Pseudomonas aeruginosa assessed as zone of inhibition at 50 ug/well after 24 hrs by agar well diffusion method; settings: for zone of inhibition at 50 µg/disc: read-out: DIZ
Pseudomonas aeruginosa [8] = experiment: Antimicrobial activity against Pseudomonas aeruginosa assessed as zone of inhibition at 75 ug/well after 24 hrs by agar well diffusion method; settings: for zone of inhibition at 75 µg/disc: read-out: DIZ
Pseudomonas aeruginosa [9] = experiment: Antimicrobial activity against Pseudomonas aeruginosa assessed as zone of inhibition at 100 ug/well after 24 hrs by agar well diffusion method; settings: for zone of inhibition at 100 µg/disc: read-out: DIZ
Klebsiella pneumoniae [10] = experiment: Antimicrobial activity against Klebsiella pneumoniae assessed as zone of inhibition at 50 ug/well after 24 hrs by agar well diffusion method; settings: for zone of inhibition at 50 µg/disc: read-out: DIZ
Klebsiella pneumoniae [11] = experiment: Antimicrobial activity against Klebsiella pneumoniae assessed as zone of inhibition at 75 ug/well after 24 hrs by agar well diffusion method; settings: for zone of inhibition at 75 µg/disc: read-out: DIZ
Klebsiella pneumoniae [12] = experiment: Antimicrobial activity against Klebsiella pneumoniae assessed as zone of inhibition at 100 ug/well after 24 hrs by agar well diffusion method; settings: for zone of inhibition at 100 µg/disc: read-out: DIZ
Aspergillus niger [13] = experiment: Antifungal activity against Aspergillus niger assessed as zone of inhibition at 50 ug/well after 48 hrs by agar well diffusion method; settings: for zone of inhibition at 50 µg/disc: read-out: DIZ
Aspergillus niger [14] = experiment: Antifungal activity against Aspergillus niger assessed as zone of inhibition at 75 ug/well after 48 hrs by agar well diffusion method; settings: for zone of inhibition at 75 µg/disc: read-out: DIZ
Aspergillus niger [15] = experiment: Antifungal activity against Aspergillus niger assessed as zone of inhibition at 100 ug/well after 48 hrs by agar well diffusion method; settings: for zone of inhibition at 100 µg/disc: read-out: DIZ
Penicillium chrysogenum [16] = experiment: Antifungal activity against Penicillium chrysogenum assessed as zone of inhibition at 50 ug/well after 48 hrs by agar well diffusion method; settings: for zone of inhibition at 50 µg/disc: read-out: DIZ
Penicillium chrysogenum [17] = experiment: Antifungal activity against Penicillium chrysogenum assessed as zone of inhibition at 75 ug/well after 48 hrs by agar well diffusion method; settings: for zone of inhibition at 75 µg/disc: read-out: DIZ
Penicillium chrysogenum [18] = experiment: Antifungal activity against Penicillium chrysogenum assessed as zone of inhibition at 100 ug/well after 48 hrs by agar well diffusion method; settings: for zone of inhibition at 100 µg/disc: read-out: DIZ
Staphylococcus aureus [19] = experiment: Antimicrobial activity against Staphylococcus aureus after 24 hrs by broth dilution test
Bacillus subtilis [20] = experiment: Antimicrobial activity against Bacillus subtilis after 24 hrs by broth dilution test
Pseudomonas aeruginosa [21] = experiment: Antimicrobial activity against Pseudomonas aeruginosa after 24 hrs by broth dilution test
Klebsiella pneumoniae [22] = experiment: Antimicrobial activity against Klebsiella pneumoniae after 24 hrs by broth dilution test
Aspergillus niger [23] = experiment: Antifungal activity against Aspergillus niger after 48 hrs by broth dilution test
Penicillium chrysogenum [24] = experiment: Antifungal activity against Penicillium chrysogenum after 48 hrs by broth dilution test
Staphylococcus aureus [25] = experiment: Bactericidal activity against Staphylococcus aureus incubated for 24 hrs followed by replating on sterile nutrient broth and incubated for 24 hrs by broth dilution test
Bacillus subtilis [26] = experiment: Bactericidal activity against Bacillus subtilis incubated for 24 hrs followed by replating on sterile nutrient broth and incubated for 24 hrs by broth dilution test
Pseudomonas aeruginosa [27] = experiment: Bactericidal activity against Pseudomonas aeruginosa incubated for 24 hrs followed by replating on sterile nutrient broth and incubated for 24 hrs by broth dilution test
Klebsiella pneumoniae [28] = experiment: Bactericidal activity against Klebsiella pneumoniae incubated for 24 hrs followed by replating on sterile nutrient broth and incubated for 24 hrs by broth dilution test
Aspergillus niger [29] = experiment: Fungicidal activity against Aspergillus niger incubated for 48 hrs followed by replating on PDA and incubated for 48 hrs by broth dilution test
Penicillium chrysogenum [30] = experiment: Fungicidal activity against Penicillium chrysogenum incubated for 48 hrs followed by replating on PDA and incubated for 48 hrs by broth dilution test

MIC (Staphylococcus aureus [19]) | MIC (Bacillus subtilis [20]) | SMILES | zone of inhibition at 50 µg/disc (Staphylococcus aureus [1]) | zone of inhibition at 75 µg/disc (Staphylococcus aureus [2]) | zone of inhibition at 100 µg/disc (Staphylococcus aureus [3]) | zone of inhibition at 50 µg/disc (Bacillus subtilis [4]) | zone of inhibition at 75 µg/disc (Bacillus subtilis [5]) | zone of inhibition at 100 µg/disc (Bacillus subtilis [6]) | zone of inhibition at 50 µg/disc (Pseudomonas aeruginosa [7]) | zone of inhibition at 75 µg/disc (Pseudomonas aeruginosa [8]) | zone of inhibition at 100 µg/disc (Pseudomonas aeruginosa [9]) | zone of inhibition at 50 µg/disc (Klebsiella pneumoniae [10]) | zone of inhibition at 75 µg/disc (Klebsiella pneumoniae [11]) | zone of inhibition at 100 µg/disc (Klebsiella pneumoniae [12]) | zone of inhibition at 50 µg/disc (Aspergillus niger [13]) | zone of inhibition at 75 µg/disc (Aspergillus niger [14]) | zone of inhibition at 100 µg/disc (Aspergillus niger [15]) | zone of inhibition at 50 µg/disc (Penicillium chrysogenum [16]) | zone of inhibition at 75 µg/disc (Penicillium chrysogenum [17]) | zone of inhibition at 100 µg/disc (Penicillium chrysogenum [18]) | also measured
50 µg/mL (≈ 94.2 µM) | 6.25 µg/mL (≈ 11.8 µM) | O=C(NS(=O)(=O)c1c(-c2ccccc2)nn(-c2ccccc2)c1-c1ccc([N+](=O)[O-])cc1)c1cccs1 | 23 mm | 26 mm | 27 mm | 33 mm | 36 mm | 40 mm | 20 mm | 21 mm | 24 mm | 29 mm | 32 mm | 34 mm | 25 mm | 28 mm | 31 mm | 22 mm | 24 mm | 27 mm | MIC (Pseudomonas aeruginosa [21]): 25 µg/mL (≈ 47.1 µM); MIC (Klebsiella pneumoniae [22]): 25 µg/mL (≈ 47.1 µM); MIC (Aspergillus niger [23]): 25 µg/mL (≈ 47.1 µM); MIC (Penicillium chrysogenum [24]): 100 µg/mL (≈ 188 µM); MBC (Staphylococcus aureus [25]): 200 µg/mL (≈ 377 µM); MBC (Bacillus subtilis [26]): 12.5 µg/mL (≈ 23.6 µM); MBC (Pseudomonas aeruginosa [27]): 100 µg/mL (≈ 188 µM); MBC (Klebsiella pneumoniae [28]): 100 µg/mL (≈ 188 µM); MFC (Aspergillus niger [29]): 100 µg/mL (≈ 188 µM); MFC (Penicillium chrysogenum [30]): > 200 µg/mL
50 µg/mL (≈ 102 µM) | 6.25 µg/mL (≈ 12.8 µM) | O=C(NS(=O)(=O)c1c(-c2ccccc2)noc1-c1ccc([N+](=O)[O-])cc1)c1ccc(Cl)s1 | 27 mm | 30 mm | 32 mm | 37 mm | 39 mm | 44 mm | 23 mm | 25 mm | 28 mm | 32 mm | 35 mm | 38 mm | 35 mm | 37 mm | 40 mm | 27 mm | 29 mm | 33 mm | MIC (Pseudomonas aeruginosa [21]): 12.5 µg/mL (≈ 25.5 µM); MIC (Klebsiella pneumoniae [22]): 25 µg/mL (≈ 51 µM); MIC (Aspergillus niger [23]): 6.25 µg/mL (≈ 12.8 µM); MIC (Penicillium chrysogenum [24]): 50 µg/mL (≈ 102 µM); MBC (Staphylococcus aureus [25]): 200 µg/mL (≈ 408 µM); MBC (Bacillus subtilis [26]): 12.5 µg/mL (≈ 25.5 µM); MBC (Pseudomonas aeruginosa [27]): 50 µg/mL (≈ 102 µM); MBC (Klebsiella pneumoniae [28]): 100 µg/mL (≈ 204 µM); MFC (Aspergillus niger [29]): 12.5 µg/mL (≈ 25.5 µM); MFC (Penicillium chrysogenum [30]): 200 µg/mL (≈ 408 µM)
50 µg/mL (≈ 88.5 µM) | 6.25 µg/mL (≈ 11.1 µM) | O=C(NS(=O)(=O)c1c(-c2ccccc2)nn(-c2ccccc2)c1-c1ccc([N+](=O)[O-])cc1)c1ccc(Cl)s1 | 24 mm | 28 mm | 29 mm | 35 mm | 38 mm | 41 mm | 22 mm | 23 mm | 26 mm | 30 mm | 33 mm | 37 mm | 29 mm | 31 mm | 34 mm | 24 mm | 25 mm | 29 mm | MIC (Pseudomonas aeruginosa [21]): 12.5 µg/mL (≈ 22.1 µM); MIC (Klebsiella pneumoniae [22]): 25 µg/mL (≈ 44.2 µM); MIC (Aspergillus niger [23]): 12.5 µg/mL (≈ 22.1 µM); MIC (Penicillium chrysogenum [24]): 50 µg/mL (≈ 88.5 µM); MBC (Staphylococcus aureus [25]): 200 µg/mL (≈ 354 µM); MBC (Bacillus subtilis [26]): 12.5 µg/mL (≈ 22.1 µM); MBC (Pseudomonas aeruginosa [27]): 50 µg/mL (≈ 88.5 µM); MBC (Klebsiella pneumoniae [28]): 100 µg/mL (≈ 177 µM); MFC (Aspergillus niger [29]): 50 µg/mL (≈ 88.5 µM); MFC (Penicillium chrysogenum [30]): 200 µg/mL (≈ 354 µM)
 |  | O=C(NS(=O)(=O)C1C(c2ccccc2)=NN(c2ccccc2)C1c1ccccc1)c1cccs1 (stereo not drawn) |  |  |  |  |  |  |  |  |  |  |  |  |  |  |  |  |  |  | diameter of the inhibition zone (DIZ) (Staphylococcus aureus [1]): inactive; diameter of the inhibition zone (DIZ) (Staphylococcus aureus [2]): inactive; diameter of the inhibition zone (DIZ) (Staphylococcus aureus [3]): inactive; diameter of the inhibition zone (DIZ) (Bacillus subtilis [4]): inactive; diameter of the inhibition zone (DIZ) (Bacillus subtilis [5]): inactive; diameter of the inhibition zone (DIZ) (Bacillus subtilis [6]): inactive; diameter of the inhibition zone (DIZ) (Pseudomonas aeruginosa [7]): inactive; diameter of the inhibition zone (DIZ) (Pseudomonas aeruginosa [8]): inactive; diameter of the inhibition zone (DIZ) (Pseudomonas aeruginosa [9]): inactive; diameter of the inhibition zone (DIZ) (Klebsiella pneumoniae [10]): inactive; diameter of the inhibition zone (DIZ) (Klebsiella pneumoniae [11]): inactive; diameter of the inhibition zone (DIZ) (Klebsiella pneumoniae [12]): inactive; diameter of the inhibition zone (DIZ) (Aspergillus niger [13]): inactive; diameter of the inhibition zone (DIZ) (Aspergillus niger [14]): inactive; diameter of the inhibition zone (DIZ) (Aspergillus niger [15]): inactive; diameter of the inhibition zone (DIZ) (Penicillium chrysogenum [16]): inactive; diameter of the inhibition zone (DIZ) (Penicillium chrysogenum [17]): inactive; diameter of the inhibition zone (DIZ) (Penicillium chrysogenum [18]): inactive

From ChEMBL document CHEMBL4251595, “Green approach for the synthesis of thiophenyl pyrazoles and isoxazoles by adopting 1,3-dipolar cycloaddition methodology and their antimicrobial activity” (2018)
